Source: paper PMC5707495, “Systematic re-evaluation of the bis(2-hydroxyethyl)disulfide (HEDS) assay reveals an alternative mechanism and activity of glutaredoxins” (Chemical Science, 2015)

Experiments:
PfGrx = biological target: T1, PfGrx (Plasmodium falciparum, UniProt Q9NLB2); test: HEDS assay coupled to glutathione reductase, NADPH […] nm; format: biochemical; conditions: co-substrate GSH; sequential kinetics; pH 8.0, 25 °C
T1 construct: gene PF3D7_0306300; dithiol Grx with Cys29 and Cys32 (CPYC motif) and Cys88 (GGC motif)
T1 sequence (Q9NLB2 1-111): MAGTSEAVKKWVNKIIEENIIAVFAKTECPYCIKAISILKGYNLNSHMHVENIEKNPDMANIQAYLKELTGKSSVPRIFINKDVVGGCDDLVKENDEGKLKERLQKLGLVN

ScGrx7 = biological target: T2, ScGrx7 (Saccharomyces cerevisiae, UniProt P38068); test: HEDS assay coupled to glutathione reductase, NADPH […] nm; Km replot and Dixon plot; format: biochemical
T2 construct: gene GRX7; recombinant, N-terminal MRGS(H)6 tag kept, altered stop codon; E. coli XL1-Blue; non-covalent dimer; monothiol, one Cys per subunit
T2 sequence (P38068 37-203 limits assumed): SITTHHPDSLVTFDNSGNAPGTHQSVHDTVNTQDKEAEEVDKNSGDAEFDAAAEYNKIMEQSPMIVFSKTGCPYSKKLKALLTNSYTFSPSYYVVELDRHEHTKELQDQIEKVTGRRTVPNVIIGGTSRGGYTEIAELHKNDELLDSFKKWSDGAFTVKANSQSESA

Ki (ScGrx7)	SMILES	HEDS assay coupled to glutathione reductase, NADPH 340 nm (PfGrx)
–	OCCSSCCO [HEDS, bis(2-hydroxyethyl)disulfide]	HEDS assays with PfGrx yielded sequential kinetic patterns
180 µM	OCCS [2-ME]	–
